Data published in patent US8114381B2, “Radiolabeled compounds and compositions, their precursors and methods for their production” (The University of British Columbia, priority 2004, dated 2012).

Legend:
Type in all cases: physicochemical
[1] = Kinetics of fluorination of boron compound with KHF2; conditions: 100 mM Acetic acid at pH 3.5
Description: Prior to ^18F-labeling of the final DNA compound or other boron-based fluoride acceptors, dilute labeling conditions were developed for 4-(4,4,5,5-Tetramethyl-1,3,2-dioxaborolan-2-yl) aniline with cold ^19F and the expectation that these labeling conditions can be extrapolated onto ^18F studies. […]

[2] = Spectroscopic study of protecting group hydrolysis rate; conditions: 200 mM Acetic acid at pH 3.5, 2 mM boron compound, 20 mM KHF2
Protocol: Prior to ^18F-labeling of the final DNA compound or other boron-based fluoride acceptors, dilute labeling conditions were developed for 4-(4,4,5,5-Tetramethyl-1,3,2-dioxaborolan-2-yl) aniline with cold ^19F and the expectation that these labeling conditions can be extrapolated onto ^18F studies. The general conditions established are as follows: 200 mM Acetic acid at pH 3.5, with 2 mM boron compound, and 20 mM KHF2.

[3] = 19F NMR stability of B-F bond with 20 mM boric acid chase or in presence of boric acid; conditions: 20 mM boric acid chase (chase at 1 h, NMR at 2 h) or fluorination in presence of 20 mM boric acid
Protocol: Fluorination after a 20 mM boric acid chase (chase at 1 h, NMR taken at 2 h): ^19F NMR (300 MHz, D2O, TFA ref) δ −50.23 (fluorine-boric acid species #1), δ−53.89 (KHF2), δ −62.3 (fluorine-boric acid species #2), δ −66.30 (s, φBF3). Fluorination in the presence of boric acid: ^19F NMR (300 MHz, D2O, TFA ref) δ −50.02 (fluorine-boric acid species #1), δ −52.47 (KHF2), δ −62.0 (fluorine-boric acid species #2), δ −65.65 (s, φBF3).

stability of B—F bond (persistence of 19F NMR peak near δ −66) [3]	Compound	rate of fluorination [1] [min⁻¹]	protecting group hydrolysis rate [2] [min⁻¹]
	CC1(C)OB(c2ccc(N)cc2)OC1(C)C [4-(4,4,5,5-Tetramethyl-1,3,2-dioxaborolan-2-yl) aniline]	2.8 ± 0.3	0.66 ± 0.04
stable	[NH3+]c1ccc([B-](F)(F)F)cc1 [φBF3, 4-Ammoniumphenyl Trifluoroborate]		
